In brackets after ≈: the same amount, converted by molar mass. Where two headings read alike, the source gives them in different places.
Legend:
[1] = system: E. coli ATCC 25922; test: MIC assay, CLSI broth microdilution, E. coli ATCC 25922 (AECO001); assay type: cell-based; conditions: for MIC: Escherichia coli
Procedure, shortened: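 CLSI broth microdilution (M7-A7): two-fold compound dilutions in Mueller Hinton Broth, inoculum 5×10^5 CFU/mL final. Plates incubated 20 hours at 35° C. in ambient air; MIC read as lowest inhibitory concentration.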

[2] = system: P. aeruginosa ATCC 27853; test: MIC assay, CLSI broth microdilution, P. aeruginosa ATCC 27853 (APAE001); assay type: cell-based; conditions: for MIC: Pseudomonas aeruginosa
Procedure, shortened: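 CLSI M7-A7 broth microdilution in Mueller Hinton Broth using two-fold compound serial dilutions. Inoculum was prepared from the previous day's agar colonies at a final 5×10^5 CFU/mL. Plates were incubated at 35° C for 20 hours in ambient air.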

[3] = system: E. coli ATCC 25922; test: murine septicemia model of infection, E. coli; assay type: in vivo; conditions: mice inoculated IP, single SC or IV dose 1 hour after challenge, mortality 7 days; ED50 values are mg/kg
Experimental: (§1) Two models were run on each compound, using E. coli and P. aeruginosa QC bacterial strains. Both studies employed the same design. […] At 1 hour after bacterial challenge, the mice received a single SC or IV […] dose of vehicle or test substance to assess in vivo anti-infective activity. Mortality was recorded once daily for 7 days after bacterial inoculation.

[4] = system: P. aeruginosa ATCC 27853; test: murine septicemia model of infection, P. aeruginosa; assay type: in vivo; conditions: mice inoculated IP, single SC or IV dose 1 hour after challenge, mortality 7 days; ED50 values are mg/kg
Experimental: as §1

[5] = ATCC27853, Table 2, read-out: MIC P. aeruginosa
[6] = AECO001 is ATCC25922, 35° C., 20 hours, read-out: MIC AECO001
[7] = APAE001 is ATCC27853, 35° C., 20 hours, read-out: MIC APAE001
[8] = ATCC25922, 20 h, read-out: MIC AECO001
[9] = ATCC27853, 20 h, read-out: MIC APAE001

Compound | MIC [2, 5] [µg/mL] | ED50/MIC E. Coli [3] | ED50/MIC P. aeruginosa [4] | MIC [1, 6] [µg/mL] | MIC [2, 7] [µg/mL] | MIC [1, 8] [µg/mL] | MIC [2, 9] [µg/mL] | also measured
NCC[C@H](O)C(=O)N[C@@H]1C[C@H](N)[C@@H](O[C@H]2O[C@H](CN)[C@@H](O)[C@H](O)[C@H]2O)[C@H](O)[C@H]1O[C@H]1O[C@H](CO)[C@@H](O)[C@H](N)[C@H]1O [Amikacin, amikacin, reference compound] | 1 to 16 (≈ 1.71 to 27.3 µM) | 1.5 | 13 | – | – | – | – | MIC ([1]; ATCC25922, Table 2, read-out: MIC E. coli): 1 to 16 µg/mL (≈ 1.71 to 27.3 µM)
CN[C@@H]1[C@@H](O)[C@@H](O[C@@H]2[C@@H](O)[C@H](O[C@H]3OC(CNCCO)=CC[C@H]3N)[C@@H](N)C[C@H]2NC(=O)[C@@H](O)CCN)OC[C@]1(C)O [Example 1, 6′-(2-Hydroxy-ethyl)-1-(4-amino-2(S)-hydroxy-butyryl)-sisomicin] | 1 to 16 (≈ 1.69 to 27 µM) | <2 | 4 | < 1 | 1 to 16 (≈ 1.69 to 27 µM) | – | – | –
CN[C@@H]1[C@@H](O)[C@@H](O[C@@H]2[C@@H](O)[C@H](O[C@H]3OC(CNCC4CCNCC4)=CC[C@H]3N)[C@@H](N)C[C@H]2NC(=O)[C@@H](O)CN)OC[C@]1(C)O [Example 15, 6′-(Methyl-piperidin-4-yl)-1-(3-amino-2(S)-hydroxy-propionyl)-sisomicin] | 1 to 16 (≈ 1.58 to 25.3 µM) | – | 1 | < 1 | 1 to 16 (≈ 1.58 to 25.3 µM) | – | – | –
CN[C@@H]1[C@@H](O)[C@@H](O[C@@H]2[C@@H](O)[C@H](O[C@H]3OC(CNCCO)=CC[C@H]3N)[C@@H](N)C[C@H]2NC(=O)[C@@H](O)CN)OC[C@]1(C)O [Example 16, 6′-(2-Hydroxy-ethyl)-1-(3-amino-2(S)-hydroxy-propionyl)-sisomicin] | 1 to 16 (≈ 1.73 to 27.6 µM) | 1 | 3 | < 1 | 1 to 16 (≈ 1.73 to 27.6 µM) | – | – | –
CN[C@@H]1[C@@H](O)[C@@H](O[C@@H]2[C@@H](O)[C@H](O[C@H]3OC(CNCCCN)=CC[C@H]3N)[C@@H](N)C[C@H]2NC(=O)[C@@H](O)CN)OC[C@]1(C)O [Example 17, 6′-(3-Amino-propyl)-1-(3-amino-2(S)-hydroxy-propionyl)-sisomicin] | 1 to 16 (≈ 1.69 to 27 µM) | 1 | 5 | < 1 | 1 to 16 (≈ 1.69 to 27 µM) | – | – | –
CN[C@@H]1[C@@H](O)[C@@H](O[C@@H]2[C@@H](O)[C@H](O[C@H]3OC(CNCC(O)CN)=CC[C@H]3N)[C@@H](N)C[C@H]2NC(=O)[C@@H](O)CN)OC[C@]1(C)O (stereo partly drawn) [Example 22, 6′-(3-Amino-2-hydroxy-propyl)-1-(3-amino-2(S)-hydroxy-propionyl)-sisomicin] | 1 to 16 (≈ 1.65 to 26.3 µM) | 1 | 8 | 1 to 16 (≈ 1.65 to 26.3 µM) | 1 to 16 (≈ 1.65 to 26.3 µM) | – | – | –
CN[C@@H]1[C@@H](O)[C@@H](O[C@@H]2[C@@H](O)[C@H](O[C@H]3OC(CNCCCN)=CC[C@H]3N)[C@@H](N)C[C@H]2NC(=O)C2(O)CNC2)OC[C@]1(C)O [Example 57] | < 1 | 2 | 14 | < 1 | < 1 | – | – | –
CN[C@@H]1[C@@H](O)[C@@H](O[C@@H]2[C@@H](O)[C@H](O[C@H]3OC(CN)=CC[C@H]3NC[C@H](C)N)[C@@H](N)C[C@H]2NC(=O)[C@@H](O)CCN)OC[C@]1(C)O [Example 95, 2′-(2(S)-Amino-propyl)-1-(4-amino-2(S)-hydroxy-butyryl)-sisomicin] | – | – | – | – | – | < 1 | > 16 | –
CN[C@@H]1[C@@H](O)[C@@H](O[C@@H]2[C@@H](O)[C@H](O[C@H]3OC(CN)=CC[C@H]3NC3CNC3)[C@@H](N)C[C@H]2NC(=O)[C@@H](O)CCN)OC[C@]1(C)O [Example 96, 2′-(Azetidin-3-yl)-1-(4-amino-2(S)-hydroxy-butyryl)-sisomicin] | 1 to 16 (≈ 1.66 to 26.5 µM) | – | 3 | < 1 | 1 to 16 (≈ 1.66 to 26.5 µM) | – | – | –
CN[C@@H]1[C@@H](O)[C@@H](O[C@@H]2[C@@H](O)[C@H](O[C@H]3OC(CN)=CC[C@H]3NCC(N)CO)[C@@H](N)C[C@H]2NC(=O)[C@@H](O)CCN)OC[C@]1(C)O (stereo partly drawn) [Example 97, 2′-(2-Amino-propanol)-1-(4-amino-2(S)-hydroxy-butyryl)-sisomicin] | – | – | – | – | – | < 1 | 1 to 16 (≈ 1.61 to 25.7 µM) | –
CN[C@@H]1[C@@H](O)[C@@H](O[C@@H]2[C@@H](O)[C@H](O[C@H]3OC(CN)=CC[C@H]3NCCO)[C@@H](N)C[C@H]2NC(=O)[C@@H](O)CCN)OC[C@]1(C)O [Example 98, 2′-(2-Hydroxy-ethyl)-1-(4-amino-2(S)-hydroxy-butyryl)-sisomicin] | – | – | – | – | – | 1 to 16 (≈ 1.69 to 27 µM) | 1 to 16 (≈ 1.69 to 27 µM) | –
CN[C@@H]1[C@@H](O)[C@@H](O[C@@H]2[C@@H](O)[C@H](O[C@H]3OC(CN)=CC[C@H]3NC(=O)C(N)CCCN)[C@@H](N)C[C@H]2NC(=O)[C@@H](O)CCN)OC[C@]1(C)O (stereo partly drawn) [Example 99, 2′-(2,5-Diamino-pentoyl)-1-(4-amino-2(S)-hydroxy-butyryl)-sisomicin] | – | – | – | – | – | 1 to 16 (≈ 1.51 to 24.1 µM) | 1 to 16 (≈ 1.51 to 24.1 µM) | –
CN[C@@H]1[C@@H](O)[C@@H](O[C@@H]2[C@@H](O)[C@H](O[C@H]3OC(CN)=CC[C@H]3NCC(O)CO)[C@@H](N)C[C@H]2NC(=O)[C@@H](O)CCN)OC[C@]1(C)O (stereo partly drawn) [Example 100, 2′-(2-Hydroxy-propanol)-1-(4-amino-2(S)-hydroxy-butyryl)-sisomicin] | – | – | – | – | – | 1 to 16 (≈ 1.61 to 25.7 µM) | > 16 | –
CN[C@@H]1[C@@H](O)[C@@H](O[C@@H]2[C@@H](O)[C@H](O[C@H]3OC(CN)=CC[C@H]3NCC(O)CN)[C@@H](N)C[C@H]2NC(=O)[C@@H](O)CCN)OC[C@]1(C)O (stereo partly drawn) [Example 101, 2′-(2-Hydroxy-3-amino-propyl)-1-(4-amino-2(S)-hydroxy-butyryl)-sisomicin] | – | – | – | – | – | < 1 | 1 to 16 (≈ 1.61 to 25.7 µM) | –
CN[C@@H]1[C@@H](O)[C@@H](O[C@@H]2[C@@H](O)[C@H](O[C@H]3OC(CN)=CC[C@H]3NCCCCN)[C@@H](N)C[C@H]2NC(=O)[C@@H](O)CCN)OC[C@]1(C)O [Example 102, 2′-(4-Amino-butyl)-1-(4-amino-2(S)-hydroxy-butyryl)-sisomicin] | – | – | – | – | – | < 1 | 1 to 16 (≈ 1.61 to 25.8 µM) | –
CN[C@@H]1[C@@H](O)[C@@H](O[C@@H]2[C@@H](O)[C@H](O[C@H]3OC(CN)=CC[C@H]3NC(=N)N)[C@@H](N)C[C@H]2NC(=O)[C@@H](O)CCN)OC[C@]1(C)O [Example 103, 2′-Guanidinium-1-(4-amino-2(S)-hydroxy-butyryl)-sisomicin] | < 1 | 2 | 6 | < 1 | < 1 | – | – | –
CN[C@@H]1[C@@H](O)[C@@H](O[C@@H]2[C@@H](O)[C@H](O[C@H]3OC(CN)=CC[C@H]3NC[C@H]3C[C@H](N)C3)[C@@H](N)C[C@H]2NC(=O)[C@@H](O)CCN)OC[C@]1(C)O [Example 104, 2′-(Methyl-trans-3-amino-cyclobutyl)-1-(4-amino-2(S)-hydroxy-butyryl)-sisomicin] | – | – | – | – | – | < 1 | 1 to 16 (≈ 1.58 to 25.3 µM) | –
CN[C@@H]1[C@@H](O)[C@@H](O[C@@H]2[C@@H](O)[C@H](O[C@H]3OC(CNC(=N)N)=CC[C@H]3NC(=N)N)[C@@H](N)C[C@H]2N)OC[C@]1(C)O [Example 105, 6′,2′-bis-Guanidinium-sisomicin] | – | – | – | – | – | > 16 | > 16 | –
CN[C@@H]1[C@@H](O)[C@@H](O[C@@H]2[C@@H](O)[C@H](O[C@H]3OC(CNCCO)=CC[C@H]3NC(=N)N)[C@@H](N)C[C@H]2N)OC[C@]1(C)O [Example 106, 6′-(2-Hydroxy-ethyl)-2′-guanidinium-sisomicin] | – | – | – | – | – | < 1 | 1 to 16 (≈ 1.87 to 30 µM) | –
CN[C@@H]1[C@@H](O)[C@@H](O[C@@H]2[C@@H](O)[C@H](O[C@H]3OC(CNC[C@H]4C[C@H](N)C4)=CC[C@H]3NC(=N)N)[C@@H](N)C[C@H]2N)OC[C@]1(C)O [Example 107, 6′-(Methyl-trans-3-amino-cyclobutyl)-2′-guanidinium-sisomicin] | – | – | – | – | – | 1 to 16 (≈ 1.75 to 27.9 µM) | < 1 | –
CNCC1=CC[C@@H](NC(=N)N)[C@@H](O[C@H]2[C@H](O)[C@@H](O[C@H]3OC[C@](C)(O)[C@H](NC)[C@H]3O)[C@H](N)C[C@@H]2N)O1 [Example 108, 6′-Methyl-2′-guanidinium-sisomicin] | – | – | – | – | – | < 1 | 1 to 16 (≈ 1.99 to 31.8 µM) | –
gentamicin [reference compound] | – | 2.4 | 12 | – | – | – | – | MIC E. coli ([1]; Table 2): A (MIC's of 1.0 μg/mL or less = A); MIC P. aeruginosa ([2]; Table 2): A (MIC's of 1.0 μg/mL or less = A)
